Experimental data taken from ChEMBL document CHEMBL4376806, “Antibiotic Adjuvants: Make Antibiotics Great Again!” (2019).
In brackets after ≈: the same amount, converted by molar mass.

What was measured:
[1] = target: T1, MexAB/OprM (Pseudomonas aeruginosa (strain ATCC 15692 / DSM 22644 / CIP 104116 / JCM14847 / LMG 12228 / 1C / PRS 101 / PAO1)) (UniProt P52477+P52002+Q51487); experiment: Inhibition of MexAB/OprM in Pseudomonas aeruginosa PAO1 assessed as potentiation of ciprofloxacin-induced antibacterial activity by measuring ciprofloxacin MIC at 128 ug/ml incubated for 18 hrs (reference value: 1 ug/ml)
[2] = target: T1, MexAB/OprM (Pseudomonas aeruginosa (strain ATCC 15692 / DSM 22644 / CIP 104116 / JCM14847 / LMG 12228 / 1C / PRS 101 / PAO1)); experiment: Inhibition of MexAB/OprM in Pseudomonas aeruginosa PAO1 assessed as potentiation of carbenicillin-induced antibacterial activity by measuring carbenicillin MIC at 128 ug/ml incubated for 18 hrs (reference value: 64 ug/ml)
[3] = target: T1, MexAB/OprM (Pseudomonas aeruginosa (strain ATCC 15692 / DSM 22644 / CIP 104116 / JCM14847 / LMG 12228 / 1C / PRS 101 / PAO1)); experiment: Inhibition of MexAB/OprM in Pseudomonas aeruginosa PAO1 assessed as potentiation of trimethoprim-induced antibacterial activity by measuring trimethoprim MIC at 128 ug/ml incubated for 18 hrs (reference value: 128 ug/ml)
[4] = target: T1, MexAB/OprM (Pseudomonas aeruginosa (strain ATCC 15692 / DSM 22644 / CIP 104116 / JCM14847 / LMG 12228 / 1C / PRS 101 / PAO1)); experiment: Inhibition of MexAB/OprM in Pseudomonas aeruginosa PAO1 assessed as potentiation of tetracycline-induced antibacterial activity by measuring tetracycline MIC at 128 ug/ml incubated for 18 hrs (reference value: 8 ug/ml)
[5] = target: T1, MexAB/OprM (Pseudomonas aeruginosa (strain ATCC 15692 / DSM 22644 / CIP 104116 / JCM14847 / LMG 12228 / 1C / PRS 101 / PAO1)); experiment: Inhibition of MexAB/OprM in Pseudomonas aeruginosa PAO1 assessed as potentiation of chloramphenicol-induced antibacterial activity by measuring chloramphenicol MIC at 128 ug/ml incubated for 18 hrs (reference value: 64 ug/ml)
[6] = target: T1, MexAB/OprM (Pseudomonas aeruginosa (strain ATCC 15692 / DSM 22644 / CIP 104116 / JCM14847 / LMG 12228 / 1C / PRS 101 / PAO1)); experiment: Inhibition of MexAB/OprM in Pseudomonas aeruginosa PAO1 assessed as potentiation of novobiocin-induced antibacterial activity by measuring novobiocin MIC at 128 ug/ml incubated for 18 hrs (reference value: 512 ug/ml)
Escherichia coli [7] = experiment: Potentiation of novobiocin-induced antibacterial activity against Escherichia coli W3110 assessed as novobiocin MIC at 64 ug/ml after 20 hrs by liquid microdilution method (reference value: 128 ug/ml); type: functional; conditions: K-12 substr. W3110, 20 h
Escherichia coli [8] = experiment: Potentiation of erythromycin-induced antibacterial activity against Escherichia coli W3110 assessed as erythromycin MIC at 64 ug/ml after 20 hrs by liquid microdilution method (reference value: 64 ug/ml); type: functional; conditions: K-12 substr. W3110, 20 h
Haemophilus influenzae = conditions: 54A042
[9] = target: Beta-lactamase (Staphylococcus aureus) (UniProt P00807); conditions: 01A400
Bacteroides fragilis = conditions: 78C004
[10] = tested on: Staphylococcus epidermidis; conditions: 01B116
[11] = target: Beta-lactamase CTX-M-27 (Escherichia coli) (UniProt Q840M4); experiment: Inhibition of beta-lactamase CTX-M-27 in Escherichia coli (EC113) ST 131 assessed as potentiation of piperacillin-induced antibacterial activity by measuring piperacillin MIC at 10 ug/ml incubated for 18 hrs by CLSI based broth microtitre dilution method (Rvb >64 ug/ml)
[12] = target: Beta-lactamase CTX-M-27 (Escherichia coli) (UniProt Q840M4); experiment: Inhibition of beta-lactamase CTX-M-27 in Escherichia coli (EC113) ST 131 assessed as potentiation of ampicillin-induced antibacterial activity by measuring ampicillin MIC at 10 ug/ml incubated for 18 hrs by CLSI based broth microtitre dilution method (Rvb >16 ug/ml)
[13] = target: Beta-lactamase CTX-M-27 (Escherichia coli) (UniProt Q840M4); experiment: Inhibition of beta-lactamase CTX-M-27 in Escherichia coli (EC113) ST 131 assessed as potentiation of aztreonam-induced antibacterial activity by measuring aztreonam MIC at 10 ug/ml incubated for 18 hrs by CLSI based broth microtitre dilution method (Rvb >16 ug/ml)
[14] = target: Beta-lactamase CTX-M-27 (Escherichia coli) (UniProt Q840M4); experiment: Inhibition of beta-lactamase CTX-M-27 in Escherichia coli (EC113) ST 131 assessed as potentiation of cefazolin-induced antibacterial activity by measuring cefazolin MIC at 10 ug/ml incubated for 18 hrs by CLSI based broth microtitre dilution method (Rvb >16 ug/ml)
[15] = target: Beta-lactamase CTX-M-27 (Escherichia coli) (UniProt Q840M4); experiment: Inhibition of beta-lactamase CTX-M-27 in Escherichia coli (EC113) ST 131 assessed as potentiation of ceftazidime-induced antibacterial activity by measuring ceftazidime MIC at 10 ug/ml incubated for 18 hrs by CLSI based broth microtitre dilution method (reference value: 8 ug/ml)
[16] = target: Beta-lactamase CTX-M-27 (Escherichia coli) (UniProt Q840M4); experiment: Inhibition of beta-lactamase CTX-M-27 in Escherichia coli (EC113) ST 131 assessed as potentiation of cefepime-induced antibacterial activity by measuring cefepime MIC at 10 ug/ml incubated for 18 hrs by CLSI based broth microtitre dilution method (Rvb >32 ug/ml)
[17] = target: Beta-lactamase CTX-M-27 (Escherichia coli) (UniProt Q840M4); experiment: Inhibition of beta-lactamase CTX-M-27 in Escherichia coli (EC113) ST 131 assessed as potentiation of ceftriaxone-induced antibacterial activity by measuring ceftriaxone MIC at 10 ug/ml incubated for 18 hrs by CLSI based broth microtitre dilution method (Rvb >32 ug/ml)
Klebsiella aerogenes [18] = experiment: Inhibition of AcrAB-TolC in Enterobacter aerogenes EA3 assessed as potentiation of tetracycline-induced antibacterial activity by measuring tetracycline MIC at 0.2 mM incubated for 18 hrs (reference value: 8 ug/ml)
Klebsiella aerogenes [19] = experiment: Inhibition of AcrAB-TolC in Enterobacter aerogenes EA3 assessed as potentiation of norfloxacin-induced antibacterial activity by measuring norfloxacin MIC at 0.2 mM incubated for 18 hrs (reference value: 256 ug/ml)
Klebsiella aerogenes [20] = experiment: Inhibition of AcrAB-TolC in Enterobacter aerogenes EA3 assessed as potentiation of chloramphenicol-induced antibacterial activity by measuring chloramphenicol MIC at 0.2 mM incubated for 18 hrs (reference value: 512 ug/ml)

Which results are given for `O=C(O[C@@H]1Cc2c(O)cc(O)cc2O[C@@H]1c1cc(O)c(O)c(O)c1)c1cc(O)c(O)c(O)c1`?
MIC [1]: 0.5 µg/mL; MIC [2]: 64 µg/mL; MIC [3]: 32 µg/mL; MIC [4]: 2 µg/mL; MIC [5]: 16 µg/mL; MIC [6]: 128 µg/mL

How did the MIC (Escherichia coli [7]) turn out when `Cl.Cl.Cl.Cl.NCCCNCCCCNCCCNC(=O)Cc1cccc2ccccc12` was run?
The MIC was 1 µg/mL.

And the MIC (Escherichia coli [8])?
The MIC was 4 µg/mL.

Which results are given for `CC1(C)[C@H](C(=O)O)N2C(=O)C[C@H]2S1(=O)=O`?
MIC (Haemophilus influenzae): 1.56 µg/mL (≈ 6.69 µM); MIC [9]: 1.56 µg/mL (≈ 6.69 µM); MIC (Bacteroides fragilis): 3.12 µg/mL (≈ 13.4 µM); MIC [10]: 1.56 µg/mL (≈ 6.69 µM)

Which results are given for `NCc1ccc(C(=O)N[C@H]2Cc3cccc(C(=O)O)c3O[B-]2(O)O)cc1`?
MIC [11]: < 16 µg/mL; MIC [12]: < 8 µg/mL; MIC [13]: < 1 µg/mL; MIC [14]: 4 µg/mL; MIC [15]: < 1 µg/mL; MIC [16]: < 4 µg/mL; MIC [17]: < 0.5 µg/mL

With `Cc1c([N+](=O)[O-])ccc2c(NCCN3CCCCC3)ccnc12` as the molecule, how does the MIC (Klebsiella aerogenes [18]) read?
Its MIC is 0.5 µg/mL.

What about the MIC (Klebsiella aerogenes [19]) of the same molecule?
The MIC was 16 µg/mL.

What about the MIC (Klebsiella aerogenes [20]) of the same molecule?
The MIC was 2 µg/mL.
